According to patent EP0589484A1, “1,2-Ethanediol derivative and salt thereof, process for producing the same, and cerebral function-improving agent comprising the same” (TOYAMA CHEMICAL CO., LTD., priority 1989, dated 1990):
Where a name gives a salt, the structure may show the parent alone. Read-outs that look alike come from different tables or passages of the source.

Tests used:
ddY female mouse = experiment: Effect of test compound on hypoxia (antihypoxic activity); format: in vivo; settings: po, read-out: Antihypoxic activity (%)
Procedure: A test compound dissolved in physiological saline (100 mg/kg) was orally administered to a ddY female mouse (5-6 weeks old, each group consisting of 10 mice). After 1 (or 30 minutes*) hour from the administration, each mouse was placed in a 300-ml glass chamber, and a gas mixture consisting of 4% of oxygen and 96% of nitrogen was passed through the chamber at a rate of 5 liters/min. A time from the start of gas passing to the death of each mouse was measured.
To a control mice group was orally administered only physiological saline.
The antihypoxic activity of the test compound was calculated from the following formula: [formula]

acetylcholinesterase = target: T1, acetylcholinesterase (Mus musculus, UniProt P21836); experiment: Inhibitory activity for acetylcholinesterase (method of Ellman et al.); format: biochemical; settings: final concentration of the test compound 10 µg/ml; mouse cerebral homogenate; read-out: Inhibition (%)
T1 construct: a mouse cerebral homogenate (as an acetylcholinesterase source); from tissue; host or cells: mouse cerebrum (homogenate)
T1 sequence (P21836 32-614): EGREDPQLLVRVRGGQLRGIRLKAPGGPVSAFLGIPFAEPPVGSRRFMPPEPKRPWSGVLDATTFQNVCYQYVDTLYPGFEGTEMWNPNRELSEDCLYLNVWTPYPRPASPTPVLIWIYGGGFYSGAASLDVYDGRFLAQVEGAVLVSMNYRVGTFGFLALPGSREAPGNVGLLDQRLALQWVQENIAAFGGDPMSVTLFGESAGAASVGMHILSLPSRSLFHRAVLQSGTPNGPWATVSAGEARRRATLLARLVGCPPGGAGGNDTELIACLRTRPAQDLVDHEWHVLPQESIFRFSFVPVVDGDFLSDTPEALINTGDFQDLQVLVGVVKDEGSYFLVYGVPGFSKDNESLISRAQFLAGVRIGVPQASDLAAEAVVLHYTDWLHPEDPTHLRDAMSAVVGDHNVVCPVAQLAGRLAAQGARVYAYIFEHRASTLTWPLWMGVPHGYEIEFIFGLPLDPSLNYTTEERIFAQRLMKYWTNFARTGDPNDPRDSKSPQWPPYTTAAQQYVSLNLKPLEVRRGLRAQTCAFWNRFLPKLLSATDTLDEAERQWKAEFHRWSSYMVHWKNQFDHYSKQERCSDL
Procedure: A test was conducted in accordance with the method of Ellman et al. [Biochem. Pharmacol., vol. 7, pp. 88-95, 1961].
That is, acetylthiocholine (as a substrate) was added to a phosphate buffer solution containing 5,5'-dithiobis-(2-nitrobenzoic acid) (DTNB), a test compound and a mouse cerebral homogenate (as an acetylcholinesterase source). The resulting mixture was incubated, and the amount of the resulting 5-thio-2-nitrobenzoic acid was photometrically measured at 412 nm.
The inhibitory activity for acetylcholinesterase of the test compound was expressed by the inhibition (%) when the final concentration of the test compound was 10 µg/ml.

ddY male mice = experiment: Acute toxicity; format: in vivo, mouse; settings: 50 mg/kg intravenously, group of 3 ddY male mice
Excerpt: A test compound dissolved in physiological saline was intravenously administered to a group of 3 ddY male mice (5-6 weeks old) to examine the acute toxicity of the test compound.

[1] = 100 mg/kg orally, placed in chamber (4% oxygen, 96% nitrogen) after 1 hour from the administration, survival time relative to control
[2] = 0.5 h, 100 mg/kg orally, placed in chamber (4% oxygen, 96% nitrogen) after 30 minutes from the administration (values marked *), survival time relative to control

Compound | inhibition at 10 µg/mL (acetylcholinesterase) [%] | also measured
COc1ccc(-c2ccc(C(O)COCCN(C)C)cc2)cc1 (centres unmarked) [compound 55] | 22 | response vs control in vivo at 100 mg/kg (ddY female mouse; [1]): 207%
CN(C)CCOCC(O)c1nccn1Cc1ccccc1 (centres unmarked) [compound 372] | 30 | –
CN(C)CCOCC(O)c1ccc(Cl)c(Cl)c1 (centres unmarked) [compound 34] | 26 | response vs control in vivo at 100 mg/kg (ddY female mouse; [1]): 221%; Acute toxicity (ddY male mice): no death case
CN(C)CCOCC(O)c1ccc2ncccc2c1 (centres unmarked) [compound 319] | 30 | Acute toxicity (ddY male mice): no death case
CC(OCCN(C)C)C(O)c1ccccc1 (centres unmarked) [compound 30] | 22 | Acute toxicity (ddY male mice): no death case
CN(C)CCOCC(O)c1cccc2ccc(Cl)cc12 (centres unmarked) [compound 246] | 30 | response vs control in vivo at 100 mg/kg (ddY female mouse; [1]): 128%
CN(C)CCOCC(O)c1ccc2c(c1)CC(=O)N2 (centres unmarked) [compound 322] | 20 | –
CN(C)CCOCC(O)c1cccc2cccc(Cl)c12 (centres unmarked) [compound 247] | 26 | response vs control in vivo at 100 mg/kg (ddY female mouse; [1]): 124%
OC(COCCN1CCCCC1)c1ccc(Cl)c(Cl)c1 (centres unmarked) [compound 37] | 45 | response vs control in vivo at 100 mg/kg (ddY female mouse; [1]): 148%
CN(C)CCOCC(O)c1cccc(OCc2ccccc2)c1 (centres unmarked) [compound 47] | 38 | response vs control in vivo at 100 mg/kg (ddY female mouse; [2]): 165%
O=C(c1ccc(F)cc1)C1CCN(CCOCC(O)c2cccc3ccccc23)CC1 (centres unmarked) [compound 260, 2-{2-[4-(p-fluorobenzoyl)piperidin-1-yl]ethoxy}-1-(1-naphthyl)ethanol hydrochloride] | 43 | response vs control in vivo at 100 mg/kg (ddY female mouse; 1 h): 124%
OC(COCCN1CCc2ccccc2C1)c1ccccc1 (centres unmarked) [compound 165] | 24 | –
OC(COCCN1CCCCC1)c1cccc2ccccc12 (centres unmarked) [compound 237] | 44 | response vs control in vivo at 100 mg/kg (ddY female mouse; [1]): 149%
CN(C)CCOCC(O)c1ccc2c(c1)CCN2 (centres unmarked) [compound 329] | 45 | –
Cc1ccccc1-c1ccc(C(O)COCCN(C)C)cc1 (centres unmarked) [compound 65] | 62 | Acute toxicity (ddY male mice): no death case
CN(C)CCOCC(O)c1cccc(NS(=O)(=O)c2ccccc2)c1 (centres unmarked) [compound 182] | 38 | Acute toxicity (ddY male mice): no death case
OC(COC1CCN(Cc2ccccc2)CC1)c1ccccc1 (centres unmarked) [compound 113, 2-(1-benzylpiperidin-4-yloxy)-1-phenylethanol hydrochloride] | 45 | –
OC(COCCC1CCN(Cc2ccccc2)CC1)c1ccc(F)cc1 (centres unmarked) [compound 62] | 78 | response vs control in vivo at 100 mg/kg (ddY female mouse; [1]): 127%
CN(C)CCOCC(O)c1ccc(OCc2cccc(Cl)c2)cc1 (centres unmarked) [compound 97] | 38 | response vs control in vivo at 100 mg/kg (ddY female mouse; [2]): 138%
CN(C)CCOCC(O)c1ccc(Oc2ccccc2)c(F)c1 (centres unmarked) [compound 73] | 89 | –
OC(COCCN1CCCC1)c1ccccc1 (centres unmarked) [compound 6] | 13 | Acute toxicity (ddY male mice): no death case
CN(C)CCCOCC(O)c1cccc2ccccc12 (centres unmarked) [compound 233] | 59 | –
OC(COCCN1CCN(Cc2ccccc2)CC1)c1cccc2ccccc12 (centres unmarked) [compound 302] | 38 | response vs control in vivo at 100 mg/kg (ddY female mouse; [2]): 182%
CN(CCOCC(O)c1cccc2ccccc12)Cc1ccccc1 (centres unmarked) [compound 241] | 31 | –
CN(C)CCOCC(O)c1ccc(S(=O)(=O)Cc2ccccc2)cc1 (centres unmarked) [compound 223] | 74 | response vs control in vivo at 100 mg/kg (ddY female mouse; [2]): 149%
CN(C)CCOCC(O)c1cccc([N+](=O)[O-])c1 (centres unmarked) [compound 40] | 26 | Acute toxicity (ddY male mice): no death case
O=C(c1ccc(F)cc1)C1CCN(CCOCC(O)c2ccc3sccc3c2)CC1 (centres unmarked) [compound 350] | 42 | response vs control in vivo at 100 mg/kg (ddY female mouse; [2]): 147%
